Measurements reported in patent US20260297094A1, “Tetracyclic Compounds as SMARCA2 and/or SMARCA4 Degraders” (Aurigene Oncology Limited, priority 2023, published 2026).
Counter-ions that a name gives are not always drawn.

Columns and labels:
MV-4-11 cells = assay: Anti proliferative activity in MV-4-11 cells by Cell Titer Glo (Promega) assay; format: cell-based; conditions: 3 days, CellTiter-Glo
Method: Example-P2: Determination of Anti Proliferative Activity of Compounds in Cell Lines MV-4-11 by Cell Titer Glo® (Promega) Assay
MV-4-11 (CRL-9591™) cells were seeded in 96 well plate flat black clear bottom plates (Corning, Cat. No 3904) using complete DMEM Medium. Next day, selected compounds of the present invention were added to cells from 10 mM stocks made in DMSO (Sigma Cat no. D2650). Each concentration of compound was tested in triplicate with DMSO concentration at a final percentage not exceeding 0.3 in the cells. After the incubation of MV-4-11 cells with compound for 3 days; assay was terminated using 100 μl of CellTiter Glo® reagent (Promega, Cat. no G7572). CellTiter-Glo® Luminescent reagent determines the number of viable cells based on quantitation of ATP present which is an indicator of cell number and metabolic activity. Luminescence readings were taken in Victor-5 instrument. Percent inhibition of proliferation was calculated using formula, % inhibition=100−(luminescence value of test/luminescence value of DMSO control)*100. DMSO control (0%)=Cells in complete media with DMSO; blank=Media alone containing DMSO. EC50 was calculated using graph pad prism software.

SK-MEL-5 cells = assay: Anti proliferative activity in SK-MEL-5 cells by Cell Titer Glo (Promega) assay; format: cell-based; conditions: retreatment on Day 4, terminated on day 8, CellTiter-Glo
Method: Example-P1: Determination of Anti Proliferative Activity of Compounds in Cell Lines SK-MEL-5 by Cell Titer Glo® (Promega) Assay
Cells were seeded into 96-well plates and the plate was incubated in 37 degrees incubator overnight. The next day, compounds were diluted 3-fold to cover 9-point concentration range in DMSO. Intermediate plate dilution was prepared in media followed with compound treatment in cells. Retreatment of cells with compound dilutions was performed on Day 4 and assay was terminated on day 8 for SK-MEL-5 cells using CellTiter-Glo and the plate was kept on orbital shaker for 20 minutes at RT. Assay was terminated on day 6 for RERF-LC-A1 without a compound retreatment. Luminescence signal was recorded on VICTOR^3 instrument. Percent inhibition of proliferation was calculated at each concentration and plotted against the compound concentration. EC50 value was calculated using GraphPad® software.

SMILES | EC50 (MV-4-11 cells; Homo sapiens, MV4-11, 72 h) | EC50 (SK-MEL-5 cells; Homo sapiens) | EC50 (MV-4-11 cells) | EC50 (SK-MEL-5 cells)
O=C1CCC(N2C(=O)c3ccc(N4CCN(c5ccc6c(c5)n(C5CCCC5)c5nc(=O)c7c(Br)cccc7n65)CC4)cc3C2=O)C(=O)N1 (centres unmarked) [Compound 5, 5-(4-(4-bromo-7-cyclopentyl-5-oxo-5,7-dihydrobenzo[4,5]imidazo[1,2-a]quinazolin-9-yl)piperazin-1-yl)-2-(2,6-dioxopiperidin-3-yl)isoindoline-1,3-dione] | > 100 nM | > 100 nM | – | –
O=C1CCC(N2Cc3cc(C4CCN(C5CCN(c6ccc7c(c6)n(C6CCCC6)c6nc(=O)c8ccccc8n76)CC5)CC4)ccc3C2=O)C(=O)N1 (centres unmarked) [Compound 10, 3-(5-(1′-(7-cyclopenty1-5-oxo-5,7-dihydrobenzo[4,5]imidazo[1,2-a]quinazolin-9-yl)-[1,4′-bipiperidin]-4-yl)-1-oxoisoindolin-2-yl)piperidine-2,6-dione] | > 100 nM | > 100 nM | – | –
COc1cccc2c1c(=O)nc1n(C3CCCC3)c3cc(N4CCC(N5CCC(c6ccc(NC7CCC(=O)NC7=O)cc6F)CC5)CC4)ccc3n21 (centres unmarked) [Compound 11, 3-((4-(1′-(7-cyclopentyl-4-methoxy-5-oxo-5,7-dihydrobenzo[4,5]imidazo[1,2-a]quinazolin-9-yl)-[1,4′-bipiperidin]-4-yl)-3-fluorophenyl)amino)piperidine-2,6-dione] | > 100 nM | > 100 nM | – | –
O=C1CCC(Nc2ccc(C3CCN(C4CCN(c5ccc6c(c5)n(C5CCCC5)c5nc(=O)c7c(O)cccc7n65)CC4)CC3)c(F)c2)C(=O)N1 (centres unmarked) [Compound 12, 3-((4-(1′-(7-cyclopentyl-4-hydroxy-5-oxo-5,7-dihydrobenzo[4,5]imidazo[1,2-a]quinazolin-9-yl)-[1,4′-bipiperidin]-4-yl)-3-fluorophenyl)amino)piperidine-2,6-dione-HCl salt] | > 100 nM | > 100 nM | – | –
O=C1CCC(c2ccc(C3CCN(C4CCN(c5ccc6c(c5)n(C5CCCC5)c5nc(=O)c7c(C(F)(F)F)cccc7n65)CC4)CC3)cc2)C(=O)N1 (centres unmarked) [Compound 13, 3-(4-(1′-(7-cyclopentyl-5-oxo-4-(trifluoromethyl)-5,7-dihydrobenzo[4,5]imidazo[1,2-a]quinazolin-9-yl)-[1,4′-bipiperidin]-4-yl)phenyl)piperidine-2,6-dione] | > 100 nM | > 100 nM | – | –
O=C1CCC(N2Cc3cc(C4CCN(C5CCN(c6ccc7c(c6)n(C6CCCC6)c6nc(=O)c8cnccc8n76)CC5)CC4)ccc3C2=O)C(=O)N1 (centres unmarked) [Compound 19, 3-(5-(1′-(7-cyclopentyl-5-oxo-5,7-dihydrobenzo[4,5]imidazo[1,2-a]pyrido[3,4-e]pyrimidin-9-yl)-[1,4′-bipiperidin]-4-yl)-1-oxoisoindolin-2-yl)piperidine-2,6-dione] | > 100 nM | > 100 nM | – | –
O=C1CCC(c2ccc(C3CCN(C4CCN(c5ccc6c(c5)n(C5CCCC5)c5nc(=O)c7ncccc7n65)CC4)CC3)cc2)C(=O)N1 (centres unmarked) [Compound 24, 3-(4-(1′-(7-cyclopentyl-5-oxo-5,7-dihydrobenzo[4,5]imidazo[1,2-a]pyrido[2,3-e]pyrimidin-9-yl)-[1,4′-bipiperidin]-4-yl)phenyl)piperidine-2,6-dione] | > 100 nM | > 100 nM | – | –
Cn1c2cc(N3CCC(N4CCC(c5ccc6c(c5)CN(C5CCC(=O)NC5=O)C6=O)CC4)CC3)ccc2n2c3cccc(Cl)c3c(=O)nc12 (centres unmarked) [Compound 27, 3-(5-(1′-(4-chloro-7-methyl-5-oxo-5,7-dihydrobenzo[4,5]imidazo[1,2-a]quinazolin-9-yl)-[1,4′-bipiperidin]-4-yl)-1-oxoisoindolin-2-yl)piperidine-2,6-dione] | < 10 nM | < 10 nM | – | –
CC(C)n1c2cc(N3CCC(N4CCC(c5ccc6c(c5)CN(C5CCC(=O)NC5=O)C6=O)CC4)CC3)ccc2n2c3cccc(Cl)c3c(=O)nc12 (centres unmarked) [Compound 28, 3-(5-(1′-(4-chloro-7-isopropyl-5-oxo-5,7-dihydrobenzo[4,5]imidazo[1,2-a]quinazolin-9-yl)-[1,4′-bipiperidin]-4-yl)-1-oxoisoindolin-2-yl)piperidine-2,6-dione-HCl salt] | < 10 nM | < 10 nM | – | –
Nc1cccc2c1c(=O)nc1[nH]c3cc(N4CCC(N5CCC(c6ccc(C7CCC(=O)NC7=O)cc6)CC5)CC4)ccc3n12 (centres unmarked) [Compound 31, 3-(4-(1′-(4-amino-5-oxo-5,7-dihydrobenzo[4,5]imidazo[1,2-a]quinazolin-9-yl)-[1,4′-bipiperidin]-4-yl)phenyl)piperidine-2,6-dione-TFA salt] | > 100 nM | > 100 nM | – | –
Cc1cccc2c1c(=O)nc1n(C3CCCC3)c3cc(N4CCC(N5CCC(c6ccc(NC7CCC(=O)NC7=O)cc6F)CC5)CC4)ccc3n21 (centres unmarked) [Compound 33, 3-((4-(1′-(7-cyclopentyl-4-methyl-5-oxo-5,7-dihydrobenzo[4,5]imidazo[1,2-a]quinazolin-9-yl)-[1,4′-bipiperidin]-4-yl)-3-fluorophenyl)amino)piperidine-2,6-dione] | > 100 nM | > 100 nM | – | –
O=C1CCC(Nc2ccc(C3CCN(C4CCN(c5ccc6c(c5)[nH]c5nc(=O)c7c(Br)cccc7n56)CC4)CC3)c(F)c2)C(=O)N1 (centres unmarked) [Compound 34, 3-((4-(1′-(4-bromo-5-oxo-5,7-dihydrobenzo[4,5]imidazo[1,2-a]quinazolin-9-yl)-[1,4′-bipiperidin]-4-yl)-3-fluorophenyl)amino)piperidine-2,6-dione] | > 100 nM | > 100 nM | – | –
Nc1cccc2c1c(=O)nc1n(C3CC3)c3cc(N4CCC(N5CCN(c6ccc(NC7CCC(=O)NC7=O)cc6F)CC5)CC4)ccc3n21 (centres unmarked) [Compound 37, 3-((4-(4-(1-(4-amino-7-cyclopropyl-5-oxo-5,7-dihydrobenzo[4,5]imidazo[1,2-a]quinazolin-9-yl)piperidin-4-yl)piperazin-1-yl)-3-fluorophenyl)amino)piperidine-2,6-dione] | > 100 nM | > 100 nM | – | –
O=C1CCC(Nc2ccc(C3CCN(C4CCN(c5ccc6c(c5)n(C5CCCC5)c5nc(=O)c7c(Cl)cccc7n65)CC4)CC3)c(F)c2)C(=O)N1 (centres unmarked) [Compound 38, 3-((4-(1′-(4-chloro-7-cyclopentyl-5-oxo-5,7-dihydrobenzo[4,5]imidazo[1,2-a]quinazolin-9-yl)-[1,4′-bipiperidin]-4-yl)-3-fluorophenyl)amino)piperidine-2,6-dione] | – | – | < 10 nM | < 10 nM
O=C1CCC(NC(=O)c2ccc(C3CCN(C4CCN(c5ccc6c(c5)n(C5CCCC5)c5nc(=O)c7c(Cl)cccc7n65)CC4)CC3)cc2F)C(=O)N1 (centres unmarked) [Compound 39, 4-(1′-(4-chloro-7-cyclopentyl-5-oxo-5,7-dihydrobenzo[4,5]imidazo[1,2-a]quinazolin-9-yl)-[1,4′-bipiperidin]-4-yl)-N-(2,6-dioxopiperidin-3-yl)-2-fluorobenzamide] | > 100 nM | > 100 nM | – | –
Cn1nc(N2CCC(=O)NC2=O)c2cc(F)c(N3CCN(C4CCN(c5ccc6c(c5)n(C)c5nc(=O)c7c(N)cccc7n65)CC4)CC3)cc21 [Compound 41, 1-(6-(4-(1-(4-amino-7-methyl-5-oxo-5,7-dihydrobenzo[4,5]imidazo[1,2-a]quinazolin-9-yl)piperidin-4-yl)piperazin-1-yl)-5-fluoro-1-methyl-1H-indazol-3-yl)dihydropyrimidine-2,4(1H,3H)-dione] | > 100 nM | > 100 nM | – | –
Cn1c2cc(N3CCC(N4CCN(c5ccc6c(c5)CN(C5CCC(=O)NC5=O)C6=O)CC4)CC3)ccc2n2c3cccc(N)c3c(=O)nc12 (centres unmarked) [Compound 42, 3-(5-(4-(1-(4-amino-7-methyl-5-oxo-5,7-dihydrobenzo[4,5]imidazo[1,2-a]quinazolin-9-yl)piperidin-4-yl)piperazin-1-yl)-1-oxoisoindolin-2-yl)piperidine-2,6-dione] | > 100 nM | > 100 nM | – | –
Cn1c2cc(N3CCN(CC4CCN(c5ccc6c(c5)CN(C5CCC(=O)NC5=O)C6=O)CC4)CC3)ccc2n2c3cccc(N)c3c(=O)nc12 (centres unmarked) [Compound 43, 3-(5-(4-((4-(4-amino-7-methyl-5-oxo-5,7-dihydrobenzo[4,5]imidazo[1,2-a]quinazolin-9-yl)piperazin-1-yl)methyl)piperidin-1-yl)-1-oxoisoindolin-2-yl)piperidine-2,6-dione] | > 100 nM | > 100 nM | – | –
Cn1c2cc(N3CCC(N4CCN(c5ccc(NC6CCC(=O)NC6=O)cc5F)CC4)CC3)ccc2n2c3cccc(Cl)c3c(=O)nc12 (centres unmarked) [Compound 46, 3-((4-(4-(1-(4-chloro-7-methyl-5-oxo-5,7-dihydrobenzo[4,5]imidazo[1,2-a]quinazolin-9-yl)piperidin-4-yl)piperazin-1-yl)-3-fluorophenyl)amino)piperidine-2,6-dione] | > 100 nM | < 10 nM | – | –
